“Also recorded” adds a separate entry of the source.
Columns and labels:
[1] = system: DM eNOSKO mice; test: Renal histology (diabetic nephropathy) in diabetic eNOSKO mice; format: in vivo
Source text: It has been shown that when diabetes is induced in these mice with streptozotocin, that they develop all aspects of human diabetic nephropathy, including clinical manifestations (nephrotic proteinuria, progressive renal failure and early mortality), histologic manifestations (including mesangial expansion, nodules and mesangiolysis, podocyte abnormalities, vascular lesions, tubulointerstitial disease) and molecular changes (increases in TGF-β and VEGF expression). To the inventors' knowledge this is also the first diabetic model that develops both retinopathy and nephropathy spontaneously.
(§1) FIG. 4 ACE inhibitors and ARBs are not effective at preventing diabetic nephropathy in eNOSKO mice. DM caused mesangial expansion in DM eNOSKO mice (B), which was not prevented by enalapril (C) or telmisartan (D). […] Bar: 20 μm. […] Bar: 20 μm. White bar=no treatment; Black bar=enalapril; Gray bar=telmisartan. Data are shown as means and
FIG. 7 is an immunohistograph of a kidney of a Diabetic eNOSKO mouse showing an increase in aldosterone in its glomeruli. Diabetes was induced with streptozotocin in eNOSKO mice, which were treated with enalapril (10 mg/kg BW/day; black bar) or telmisartan (2 mg/kg BW/day; gray bar) for 4 weeks (from at 6 weeks to 10 weeks)
(§2) DM caused mesangial expansion in DM eNOSKO mice (b), which was not prevented by enalapril (c) or telmisartan (d). […] Bar: 20 μm. […] Bar: 20 μm. White bar=no treatment; Black bar=enalapril; Gray bar=telmisartan. FIG. 5 pertains to a table that provides results of the effect of ACE inhibitors and ARBs on blood pressure and renal function in diabetic nephropathy in eNOSKO mice. ACE inhibitors and ARBs are effective at lowering blood pressure and proteinuria in wild type diabetic mice, and are also effective at lowering blood pressure in nondiabetic eNOSKO mice.

[2] = system: wild type diabetic (DM) mice; test: Renal histology (early diabetic nephropathy) in wild type diabetic mice; format: in vivo
Source text: These are considered early changes of diabetic nephropathy.
as §1
(§3) FIG. 1 is a graph showing that ACE inhibitors are effective in lowering blood pressure in wild type diabetic (DM) mice. Shown in FIG. 1 is the effect of no treatment (No TX), the ACE inhibitor enalapril (DM enalapril), and the ARB telmisartan (DM telmisartan). […] These are considered early changes of diabetic nephropathy.
as §2

[3] = system: wild type diabetic (DM) mice; test: Blood pressure in wild type diabetic mice; format: in vivo
Source text: FIG. 1 represents a graph showing that ACE inhibitors are effective in lowering blood pressure in wild type diabetic (DM) mice. Shown in FIG. 1 is the effect of no treatment (No TX), the ACE inhibitor enalapril (DM enalapril), and the ARB telmisartan (DM telmisartan).
as §3

[4] = system: DM eNOSKO mice; test: Blood pressure in diabetic eNOSKO mice; format: in vivo; details: diabetic mice lacking endothelial nitric oxide synthesis; 50 mg/kg
[5] = system: mitochondria; test: Mitochondrial loss in response to oxidative stress
[6] = system: eNOSKO mice; details: 4 weeks, 50 mg/l drinking water
Procedure: Since nitrite is a metabolite of NO, and can be converted to NO in the body (reviewed in ^28), sodium nitrite was tested to see if it could prevent hypertension in eNOSKO mice.

[7] = system: human aortic endothelial cells; test: ATP levels in endothelial cells; format: cell-based; details: 3.5, 7 and 12 mg/dl, 48 hours
Procedure: Uric acid (3.5 mg/dl, 7 mg/dl and 12 mg/dl) was included in the media for 48 hours.
(§4) One of the key mechanisms by which uric acid acts to cause endothelial dysfunction is to cause a loss of mitochondria and mitochondria DNA, resulting in depletion of ATP stores necessary for endothelial function (FIGS. 11 and 12).

[8] = system: human aortic endothelial cells; test: Mitochondria number (Mitotracker Orange) in endothelial cells; format: cell-based; details: 12 mg/dl, 48 hours
Procedure: Mitochondria numbers were measured with Mitotracker Orange in control cells (FIG. 12A) and UA treated cells (FIG. 12B). Shown in FIG. 12C is the quantified effect of uric acid 12 mg/dl on mitochondria density at 48 hours.
as §4

[9] = system: human aortic endothelial cells; test: Cell viability (trypan blue exclusion); format: cell-based; details: 48 hours
[10] = system: porcine aortic endothelial cells; details: various doses, from Khosla et al; cited from earlier work
[11] = system: human aortic endothelial cells; test: Oxidative stress (DCF-DA fluorescence) in endothelial cells; format: cell-based; details: 12 mg/dl
Procedure: The green fluorescence is a measure of a marker for oxidative stress using the peroxide-sensitive probe 2′7′-dichlorofluorescein diacetate (DCF-DA) dye (FIG. 9A). On the right is the quantitation of oxidative stress, with control in open bar, uric acid (12 mg/dl) in the black bar, and uric acid with apocynin (an inhibitor of NADPH oxidase-induced oxidants) in the right bar (FIG. 9B).

[12] = system: DM eNOSKO mice; details: diabetic eNOS-deficient mice; reference 21; cited from earlier work

Compound | advanced lesions (mesangiolysis with glomerular capillary microaneurysms, augmented deposition of extracellular matrix) [1] | mesangial expansion [1] | glomerular type IV collagen deposition [2] | mesangial expansion [2] | blood pressure (BP) [3] | other results
CCOC(=O)[C@H](CCc1ccccc1)N[C@@H](C)C(=O)N1CCC[C@H]1C(=O)O [enalapril] | Neither enalapril (g) nor telmisartan (h) treatment prevented these advanced lesions | not prevented | improve | improve mesangial expansion; also recorded: beneficial effect | can significantly lower blood pressure | BP [4]: did not lower BP
O=C(NCCO[N+](=O)[O-])c1cccnc1 [nicorandil] |  |  |  |  |  | mitochondrial loss [5]: can prevent mitochondrial loss
O=NO [sodium nitrite] |  |  |  |  |  | blood pressure [6]: reduced blood pressure in eNOSKO mice similar to that observed in wild type mice
CCCc1nc2c(C)cc(-c3nc4ccccc4n3C)cc2n1Cc1ccc(-c2ccccc2C(=O)O)cc1 [telmisartan] | Neither enalapril (g) nor telmisartan (h) treatment prevented these advanced lesions | not prevented | improve | improve mesangial expansion; also recorded: beneficial effect | can significantly lower blood pressure | 
O=c1[nH]c(=O)c2[nH]c(=O)[nH]c2[nH]1 [uric acid] |  |  |  |  |  | ATP levels [7]: reduces ATP levels; mitochondria number [8]: reduces mitochondria number; cell viability ([9]; 12 mg/dl): No effects on cell viability; cell viability (trypan blue exclusion) ([9]; 3.5, 7 and 12 mg/dl): No alterations in cell viability; endothelial NO levels (fluorescence of DAF) [10]: causes a reduction in endothelial NO levels; oxidative stress (DCF-DA) [11]: causes oxidative stress
insulin |  |  |  |  |  | renal disease [12]: can be prevented

— US20110257202A1, “Therapeutic Compositions and Methods for Treating Chronic Kidney Disease Associated with a Metabolic Imbalance” (priority 2008, published 2011)
